The results in this text go back to patent US12234230B2, “Substituted benzyl-triazole compounds for Cbl-b inhibition, and further uses thereof” (Nurix Therapeutics, Inc., priority 2019, dated 2025).

One experiment has as its target Cbl-b (Homo sapiens (Human), UniProt Q13191). Description: Cbl-b displacement assay (Cbl-b inhibition assay), Biological Example 1. Format: binding. The procedure: The ability of candidate compounds to displace a known inhibitor and thereby inhibit Cbl-b activity was measured by monitoring the interaction of Cbl-b with a fluorophore-labeled probe in the presence of the candidate compound.
Following the one hour incubation, the plates were read for TR-FRET signal at 520/620 nm using an Envision plate reader (Perkin Elmer).

The test system of experiment [1] is primary human total T-cells. Put plainly: Primary human total T-cell activation (IL-2 secretion, CD25 surface staining), Biological Example 2. As to conditions: fold change over baseline; for IL-2 secretion CD3/CD28 0.3 μM / CD25 staining CD3/CD28 0.3 μM: 0.3 μM inhibitor; for IL-2 secretion CD3/CD28 0.3 μM / IL-2 secretion CD3/CD28 1 μM / CD25 staining CD3/CD28 0.3 μM / CD25 staining CD3/CD28 1 μM: anti-CD3 and anti-CD28 co-stimulation; for IL-2 secretion CD3/CD28 1 μM / CD25 staining CD3 1 μM / IL-2 secretion CD3 1 μM / CD25 staining CD3/CD28 1 μM: 1 μM inhibitor; for CD25 staining CD3 1 μM / IL-2 secretion CD3 1 μM / CD25 staining CD3 3 μM / IL-2 secretion CD3 3 μM: anti-CD3 stimulation alone; for CD25 staining CD3 3 μM / IL-2 secretion CD3 3 μM: 3 μM inhibitor.
Method: Peripheral blood mononuclear cells (PBMC) were obtained either: 1) by using Ficoll-Paque™ (GE Healthcare) for separation of peripheral blood hematopoietic cells from buffy coats of healthy human donors; or 2) directly from LeukoPak donations. […] The cells were rested overnight at 37° C. 5% CO2. The Cbl-inhibitor was added to 1×10^5 cells per well and the plate was incubated for one hour at 37° C. in 5% CO2 at the concentrations indicated (Table 3) with a final DMSO concentration of <0.1%. For samples stimulated with anti-CD3 antibody and anti-CD28 antibody (anti-CD3/anti-CD28), the Cbl-b inhibitor concentrations tested were 1 μM, and 0.3 μM. For samples stimulated with anti-CD3 antibody alone (anti-CD3), the Cbl-b inhibitor concentrations tested were 3 μM, and 1 μM. […] To prepare plates with plate bound anti-CD3 antibody (OKT3), 96-well round bottom tissue culture plates were coated with 100 μL of anti-CD3 antibody (OKT3) at 10 μg/mL for 4 hours at 37° C. 5% CO2 in phosphate buffered saline (PBS). […] Cells were stimulated for 48 hours prior to harvesting the cell free supernatant and staining the cell population for surface marker assessment by flow cytometry. Supernatants were analyzed for cytokine secretion, including IL-2 by ELISA (R&D Systems, Peprotech or Life Technologies) or Luminex multiplex kits (Procarta Life Technologies) following the manufacturer's protocol. Cells were stained with anti-CD25 antibody (BD Biosciences) to assess levels of surface marker of activation.
Readouts were reported as fold change over baseline. Baseline for this study was the measurement obtained from total human T-cells stimulated with anti-CD3 antibody and with soluble anti-CD28 antibody, wherein the cells were not incubated with a Cbl-b inhibitor (Table 3).

Setting [2] is: 0.125 nM Cbl-b final concentration (Low), read-out: Cbl-b activity IC50 (Low).
Where [3] appears, read: read-out: IC50 values in the Cbl-b inhibition assay of Biological Example 1.
The mark [4] stands for this setting: 0.5 nM Cbl-b final concentration (High), read-out: Cbl-b activity IC50 (High).

Like-named read-outs stand apart in the source and are kept apart here.

Chain of Cbl-b (Q13191 36-427): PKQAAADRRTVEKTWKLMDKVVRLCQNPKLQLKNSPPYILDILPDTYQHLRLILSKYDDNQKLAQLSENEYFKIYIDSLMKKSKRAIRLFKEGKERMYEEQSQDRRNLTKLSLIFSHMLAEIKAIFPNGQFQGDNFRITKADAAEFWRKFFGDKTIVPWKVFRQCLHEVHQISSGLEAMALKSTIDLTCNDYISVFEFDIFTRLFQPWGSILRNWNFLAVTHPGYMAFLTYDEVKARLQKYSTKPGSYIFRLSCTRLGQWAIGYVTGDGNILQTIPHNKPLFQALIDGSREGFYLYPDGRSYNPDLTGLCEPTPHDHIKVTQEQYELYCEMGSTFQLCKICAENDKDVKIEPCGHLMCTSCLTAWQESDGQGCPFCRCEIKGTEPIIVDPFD

A word on the IC50: it is the concentration at which inhibition is half-maximal. `Cn1cnnc1C1(c2cccc(N3Cc4c(cc(CN5CCC[C@H](C(F)(F)F)C5)cc4C(F)(F)F)C3=O)c2)CC2(CC2)C1` [Compound 44, (S)-2-(3-(5-(4-methyl-4H-1,2,4-triazol-3-yl)spiro[2.3]hexan-5-yl)phenyl)-4-(trifluoromethyl)-6-((3-(trifluoromethyl)piperidin-1-yl)methyl)isoindolin-1-one]: at Cbl-b (setting [2]), the IC50 is < 5 nM. For the same compound, in experiment [1], the “IL-2 secretion CD3/CD28 0.3 μM” value is “B (B indicates 20-35 fold)”, the “IL-2 secretion CD3/CD28 1 μM” value is “A (A indicates >35 fold)”, the “CD25 staining CD3 1 μM” value is recorded as “A (A indicates >2.5 fold)” and the “IL-2 secretion CD3 1 μM” value is “A (A indicates >1.1 fold)”. Moreover, in experiment [1], the “CD25 staining CD3 3 μM” value is reported as “A (A indicates >2.5 fold)” and the “IL-2 secretion CD3 3 μM” value is listed as “A (A indicates >1.1 fold)”.
Consider `C[C@@H]1CN(Cc2cc3c(c(C(F)(F)F)c2)CN(c2cccc([C@H](c4nncn4C)C4CCC4)c2)C3=O)CCC1(F)F` [Compound 1, 2-(3-((R)-cyclobutyl(4-methyl-4H-1,2,4-triazol-3-yl)methyl)phenyl)-6-(((R)-4,4-difluoro-3-methylpiperidin-1-yl)methyl)-4-(trifluoromethyl)isoindolin-1-one], for which the IC50 at Cbl-b (setting [2]) was < 5 nM. The IC50 at Cbl-b (setting [3]) was ≤ 5 nM. Also, in experiment [1], the “CD25 staining CD3/CD28 0.3 μM” value is reported as “B (B indicates 1.24-1.39 fold)”, the “IL-2 secretion CD3/CD28 0.3 μM” value is “B (B indicates 20-35 fold)”, the “CD25 staining CD3/CD28 1 μM” value is “B (B indicates 1.24-1.39 fold)” and the “IL-2 secretion CD3/CD28 1 μM” value is recorded as “B (B indicates 20-35 fold)”. In addition, in experiment [1], the “CD25 staining CD3 1 μM” value is “A (A indicates >2.5 fold)”, the “IL-2 secretion CD3 1 μM” value is listed as “A (A indicates >1.1 fold)”, the “CD25 staining CD3 3 μM” value is reported as “A (A indicates >2.5 fold)” and the “IL-2 secretion CD3 3 μM” value is “A (A indicates >1.1 fold)”.
Take `Cn1cnnc1[C@@H](c1cccc(N2Cc3c(cccc3C(F)(F)F)C2=O)c1)C1CCC1` [Compound 8, (R)-2-(3-(cyclobutyl(4-methyl-4H-1,2,4-triazol-3-yl)methyl)phenyl)-4-(trifluoromethyl)isoindolin-1-one]: the IC50 at Cbl-b (setting [4]) and on Cbl-b (setting [3]) was 5 to 20 nM in each case.
For the compound `C[C@@H]1CN(Cc2cc3c(c(C(F)(F)F)c2)CN(c2cccc([C@]4(c5nncn5C)C[C@@H](O)C4)c2)C3=O)CCC1(F)F` [Compound 31, 6-(((R)-4,4-difluoro-3-methylpiperidin-1-yl)methyl)-2-(3-((1s,3S)-3-hydroxy-1-(4-methyl-4H-1,2,4-triazol-3-yl)cyclobutyl)phenyl)-4-(trifluoromethyl)isoindolin-1-one], at Cbl-b (setting [2]), the IC50 lay in the range of 5 to 20 nM. For the same compound, in experiment [1], the “IL-2 secretion CD3/CD28 0.3 μM” value is on record as “C (C indicates <20 fold)”, the “IL-2 secretion CD3/CD28 1 μM” value was “C (C indicates <20 fold)”, the “CD25 staining CD3 1 μM” value is listed as “C (C indicates <1.5 fold)” and the “IL-2 secretion CD3 1 μM” value is recorded as “C (C indicates <0.70 fold)”. Besides, in experiment [1], the “CD25 staining CD3 3 μM” value was “B (B indicates 1.5-2.5 fold)” and the “IL-2 secretion CD3 3 μM” value was “C (C indicates <0.70 fold)”.
Consider `C[C@@H]1CN(Cc2cc3c(c(C(F)(F)F)c2)CN(c2cccc([C@]4(c5nncn5C)C[C@H](O)C4)c2)C3=O)CCC1(F)F` [Compound 34, 6-(((R)-4,4-difluoro-3-methylpiperidin-1-yl)methyl)-2-(3-(trans-3-hydroxy-1-(4-methyl-4H-1,2,4-triazol-3-yl)cyclobutyl)phenyl)-4-(trifluoromethyl)isoindolin-1-one], for which the half-inhibitory concentration (IC50) on Cbl-b (setting [2]) was 5 to 20 nM. Moreover, in experiment [1], the “CD25 staining CD3/CD28 0.3 μM” value is reported as “B (B indicates 1.24-1.39 fold)”, the “IL-2 secretion CD3/CD28 0.3 μM” value is listed as “C (C indicates <20 fold)”, the “CD25 staining CD3/CD28 1 μM” value is “B (B indicates 1.24-1.39 fold)” and the “IL-2 secretion CD3/CD28 1 μM” value is “A (A indicates >35 fold)”. In experiment [1], the “CD25 staining CD3 1 μM” value was “B (B indicates 1.5-2.5 fold)”, the “IL-2 secretion CD3 1 μM” value is reported as “A (A indicates >1.1 fold)”, the “CD25 staining CD3 3 μM” value is recorded as “B (B indicates 1.5-2.5 fold)” and the “IL-2 secretion CD3 3 μM” value is reported as “A (A indicates >1.1 fold)”.
For the compound `Cn1cnnc1[C@H](c1cccc(N2Cc3c(cccc3C(F)(F)F)C2=O)c1)C1CCC1` [Compound 9, (S)-2-(3-(cyclobutyl(4-methyl-4H-1,2,4-triazol-3-yl)methyl)phenyl)-4-(trifluoromethyl)isoindolin-1-one], at Cbl-b (setting [4]), the IC50 was > 100 nM.
In the case of `C[C@H]1CCCN(Cc2cc3c(c(C(F)(F)F)c2)CN(c2cccc([C@@H](c4nncn4C)C4CCC4)c2)C3=O)C1` [Compound 4, 2-(3-((S)-cyclobutyl(4-methyl-4H-1,2,4-triazol-3-yl)methyl)phenyl)-6-(((S)-3-methylpiperidin-1-yl)methyl)-4-(trifluoromethyl)isoindolin-1-one], the figures for the 50% inhibitory concentration (IC50) at Cbl-b (setting [2]) and at Cbl-b (setting [3]) were < 5 nM and ≤ 5 nM, respectively.
Take `Cn1cnnc1[C@]1(c2cccc(N3Cc4c(cc(CN5CCO[C@H](CC#N)C5)cc4C(F)(F)F)C3=O)c2)C[C@H](C)C1` [Compound 30, 2-((R)-4-((2-(3-((1s,3S)-3-methyl-1-(4-methyl-4H-1,2,4-triazol-3-yl)cyclobutyl)phenyl)-3-oxo-7-(trifluoromethyl)isoindolin-5-yl)methyl)morpholin-2-yl)acetonitrile]: on Cbl-b (setting [2]), the IC50 fell in the range of 5 to 20 nM.
On the same count and under the same terms, under `Cn1cnnc1C1(c2cccc(N3Cc4c(cccc4C(F)(F)F)C3=O)c2)CCOC1` (stereo not drawn) [Compound 10, 2-(3-(3-(4-methyl-4H-1,2,4-triazol-3-yl)tetrahydrofuran-3-yl)phenyl)-4-(trifluoromethyl)isoindolin-1-one] stands > 100 nM.
For `Cn1cnnc1C(c1cccc(N2Cc3c(cccc3C(F)(F)F)C2=O)c1)C1COC1` (stereo not drawn) [Compound 7, 2-(3-((4-methyl-4H-1,2,4-triazol-3-yl)(oxetan-3-yl)methyl)phenyl)-4-(trifluoromethyl)isoindolin-1-one], the IC50 at Cbl-b (setting [2]) and on Cbl-b (setting [3]) was > 100 nM in each case.
In the case of `CC[C@@H]1CN(Cc2cc3c(c(C(F)(F)F)c2)CN(c2cccc([C@]4(c5nncn5C)C[C@@H](C)C4)c2)C3=O)CCO1` [Compound 28, 6-(((R)-2-ethylmorpholino)methyl)-2-(3-((1s,3S)-3-methyl-1-(4-methyl-4H-1,2,4-triazol-3-yl)cyclobutyl)phenyl)-4-(trifluoromethyl)isoindolin-1-one], the IC50 at Cbl-b (setting [2]) is 5 to 20 nM.
In the case of `C[C@H]1CCCN(Cc2cc3c(c(C4CC4)n2)CN(c2cccc([C@@H](c4nncn4C)C4CCC4)c2)C3=O)C1` [Compound 6, 2-(3-((S)-cyclobutyl(4-methyl-4H-1,2,4-triazol-3-yl)methyl)phenyl)-4-cyclopropyl-6-(((S)-3-methylpiperidin-1-yl)methyl)-2,3-dihydro-1H-pyrrolo[3,4-c]pyridin-1-one], the half-inhibitory concentration (IC50) on Cbl-b (setting [2]) and at Cbl-b (setting [3]) was 20 to 100 nM throughout.
